Experimental data: patent US9204646B2, “Pyrazole tetrahydronaphthyl carboxamides” (BAYER CROPSCIENCE AG, priority 2012, dated 2015)

Key:
[1] = Measurement of log P values by HPLC on reversed phase columns (EEC directive 79/831 Annex V.A8); type: physicochemical; conditions: for logP: method [a]: LC-MS at pH 2.7, 0.1% formic acid in water / acetonitrile, linear gradient 10% to 95% acetonitrile, Table 1 active ingredients; for chromatographic logP: pH 2.7
Alternaria brassicae = assay: In vivo preventive test on Alternaria brassicae (leaf spot on radish); conditions: dose of 500 ppm; preventive spray on radish plants; grading 6 days after contamination vs control plants
Experimental: Radish plants (“Pernod Clair” variety), sown in starter cups on a 50/50 peat soil-pozzolana substrate and grown at 17° C., are treated at the cotyledon stage by spraying with the active ingredient prepared as described above. Plants, used as controls, are treated with the mixture of acetone/tween/DMSO/water not containing the active material. After 24 hours, the plants are contaminated by spraying the cotyledons with an aqueous suspension of Alternaria brassicae spores (50 000 spores per ml). The spores are collected from a 15-day-old culture. The contaminated radish plants are incubated at 20° C. and at 100% relative humidity. Grading (% of efficacy) is carried out 6 days after the contamination, in comparison with the control plants.

Botrytis cinerea = assay: In vivo preventive test on Botrytis cinerea (grey mould); conditions: dose of 500 ppm; preventive spray on gherkin plants; grading 4 to 5 days after contamination vs control plants
Experimental: Gherkin plants (“Vert petit de Paris” variety), sown in starter cups on a 50/50 peat soil-pozzolana substrate and grown at 24° C., are treated at the Z11 cotyledon stage by spraying with the active ingredient prepared as described above. Plants, used as controls, are treated with the mixture of acetone/tween/DMSO/water not containing the active material. After 24 hours, the plants are contaminated by spraying the cotyledons with an aqueous suspension of cryopreserved Botrytis cinerea spores (50 000 spores per ml). The spores are suspended in a nutrient solution composed of 10 g/L of PDB, 50 g/L of D-Fructose, 2 g/L of NH4NO3 and 1 g/L of KH2PO4. The contaminated gherkin plants are incubated at 17° C. and at 90% relative humidity. Grading (% of efficacy) is carried out 4 to 5 days after the contamination, in comparison with the control plants.

Pyrenophora teres = assay: In vivo preventive test on Pyrenophora teres (net blotch on barley); conditions: dose of 500 ppm; preventive spray on barley plants; grading 14 days after contamination vs control plants
Experimental: Barley plants (“Plaisant” variety), sown in starter cups on a 50/50 peat soil-pozzolana substrate and grown at 22° C., are treated at the 1-leaf stage (10 cm height) by spraying with the active ingredient prepared as described above. Plants, used as controls, are treated with the mixture of acetone/tween/DMSO/water not containing the active material. After 24 hours, the plants are contaminated by spraying the leaves with an aqueous suspension of Pyrenophora teres spores (12 000 spores per ml). The spores are collected from a 12-day-old culture. The contaminated barley plants are incubated for 48 hours at 20° C. and at 100% relative humidity, and then for 12 days at 20° C. at 70-80% relative humidity. Grading (% of efficacy) is carried out 14 days after the contamination, in comparison with the control plants.

Puccinia recondita = assay: In vivo preventive test on Puccinia recondita (brown rust on wheat); conditions: dose of 500 ppm; preventive spray on wheat plants; grading 12 days after contamination vs control plants
Experimental: Wheat plants (“Scipion” variety), sown in starter cups on a 50/50 peat soil-pozzolana substrate and grown at 22° C., are treated at the 1-leaf stage (10 cm height) by spraying with the active ingredient prepared as described above. Plants, used as controls, are treated with the mixture of acetone/tween/DMSO/water not containing the active material. After 24 hours, the plants are contaminated by spraying the leaves with an aqueous suspension of Puccinia recondita spores (100 000 spores per ml). […] The contaminated wheat plants are incubated for 24 hours at 20° C. and at 100% relative humidity, and then for 10 days at 20° C. and at 70-80% relative humidity. Grading (% of efficacy) is carried out 12 days after the contamination, in comparison with the control plants.

Septoria tritici = assay: In vivo preventive test on Septoria tritici (leaf spot on wheat); conditions: dose of 500 ppm; preventive spray on wheat plants; grading 24 days after contamination vs control plants
Experimental: Wheat plants (“Scipion” variety), sown in starter cups on a 50/50 peat soil-pozzolana substrate and grown at 22° C., are treated at the 1-leaf stage (10 cm height) by spraying with the active ingredient prepared as described above. Plants, used as controls, are treated with the mixture of acetone/tween/DMSO/water not containing the active material. After 24 hours, the plants are contaminated by spraying the leaves with an aqueous suspension of cryopreserved Septoria tritici spores (500 000 spores per ml). The contaminated wheat plants are incubated for 72 hours at 18° C. and at 100% relative humidity, and then for 21 days at 90% relative humidity. Grading (% of efficacy) is carried out 24 days after the contamination, in comparison with the control plants.

Sphaerotheca fuliginea = assay: In vivo preventive test on Sphaerotheca fuliginea (powdery mildew on cucurbits); conditions: dose of 500 ppm; preventive spray on gherkin plants; grading 12 days after contamination vs control plants
Experimental: Gherkin plants (“Vert petit de Paris” variety), sown in starter cups on a 50/50 peat soil-pozzolana substrate and grown at 24° C., are treated at the Z11 cotyledon stage by spraying with the active ingredient prepared as described above. Plants, used as controls, are treated with the mixture of acetone/tween/DMSO/water not containing the active material. After 24 hours, the plants are contaminated by spraying the cotyledons with an aqueous suspension of Sphaerotheca fuliginea spores (100 000 spores per ml). The spores are collected from infected plants. The contaminated gherkin plants are incubated at about 20° C. and at 70-80% relative humidity. Grading (% of efficacy) is carried out 12 days after the contamination, in comparison with the control plants.

Uromyces appendiculatus = assay: In vivo preventive test on Uromyces appendiculatus (bean rust); conditions: dose of 500 ppm; preventive spray on bean plants; grading 11 days after contamination vs control plants
Experimental: Bean plants (“Saxa” variety), sown in starter cups on a 50/50 peat soil-pozzolana substrate and grown at 24° C., are treated at the 2-leaf stage (9 cm height) by spraying with the active ingredient prepared as described above. Plants, used as controls, are treated with the mixture of acetone/tween/DMSO/water not containing the active material. After 24 hours, the plants are contaminated by spraying the leaves with an aqueous suspension of Uromyces appendiculatus spores (150 000 spores per ml). […] The contaminated bean plants are incubated for 24 hours at 20° C. and at 100% relative humidity, and then for 10 days at 20° C. and at 70-80% relative humidity. Grading (% of efficacy) is carried out 11 days after the contamination, in comparison with the control plants.

[2] = test system: Fusarium nivale (var. majus); assay: In vivo Fusarium nivale (var. majus)-test (wheat)/preventive; conditions: concentration of 500 ppm of active ingredient; preventive spray on wheat plants; evaluated 5 days after inoculation; 0% = untreated control, 100% = no disease
Experimental: • Solvent: 49 parts by weight of N,N-dimethylacetamide • Emulsifier: 1 part by weight of alkylaryl polyglycol ether To produce a suitable preparation of active compound, 1 part by weight of active compound or active compound combination is mixed with the stated amounts of solvent and emulsifier, and the concentrate is diluted with water to the desired concentration. To test for preventive activity, young plants are sprayed with the preparation of active compound or active compound combination at the stated rate of application. After the spray coating has been dried, the plants are slightly injured by using a sandblast and afterwards they are sprayed with a conidia suspension of Fusarium nivale (var. majus). The plants are placed in the greenhouse under a translucent incubation cabinet at a temperature of approximately 10° C. and a relative atmospheric humidity of approximately 100%.

Phakopsora pachyrhizi = assay: In vivo Phakopsora test (soybeans)/preventive; conditions: concentration of 10 ppm of active ingredient; preventive spray on soybean plants; evaluated 7 days after inoculation; 0% = untreated control, 100% = no disease
Experimental: To produce a suitable preparation of active compound, 1 part by weight of active compound is mixed with the stated amounts of solvent and emulsifier, and the concentrate is diluted with water to the desired concentration. To test for preventive activity, young plants are sprayed with the preparation of active compound at the stated rate of application. After the spray coating has dried on, the plants are inoculated with an aqueous spore suspension of the causal agent of soybean rust (Phakopsora pachyrhizi) and stay for 24 h without light in an incubation cabinet at approximately 24° C. and a relative atmospheric humidity of 95%. The plants remain in the incubation cabinet at approximately 24° C. and a relative atmospheric humidity of approximately 80% and a day/night interval of 12 h.

Pyricularia oryzae = type: in vivo; conditions: dose of 500 ppm; preventive spray on rice plants; grading 6 days after contamination vs control plants

In the case of `C=C1c2cccc(NC(=O)c3c(C(F)F)nn(C)c3F)c2CCC1(C)C` [Example 6], the logP [1] is reported as 3.87[a], the Eff. % (Alternaria brassicae) is reported as 97% and the Eff. % (Botrytis cinerea) is reported as 97%. For the same compound, the Eff. % (Pyrenophora teres) was 80%, the Eff. % (Puccinia recondita) was 89% and the Eff. % (Septoria tritici) was 75%. For the same compound, the Eff. % (Sphaerotheca fuliginea) was 70% and the Eff. % (Uromyces appendiculatus) was 97%.

`Cn1nc(C(F)F)c(C(=O)Nc2cccc3c2CCCC3(C)C)c1F` [Example 1, 5-fluoro-3-(difluoromethyl)-N-(5,5-dimethyl-5,6,7,8-tetrahydronaphthalen-1-yl)-1-methyl-1H-pyrazole-4-carboxamide] showed a chromatographic logP [1] of 3.67, an Eff. % (Alternaria brassicae) of 93% and an Eff. % (Puccinia recondita) of 100%. The Eff. % (Septoria tritici) was 88%, the Eff. % (Uromyces appendiculatus) was 100% and the Eff. % [2] was 92%.

For `Cn1nc(C(F)F)c(C(=O)Nc2cccc3c2CCC(C)(C)C3)c1F` [Example 22], the logP [1] was 3.79[a], the Eff. % (Alternaria brassicae) was 80% and the Eff. % (Botrytis cinerea) was 99%. The Eff. % (Pyrenophora teres) was 70%, the Eff. % (Puccinia recondita) was 94% and the Eff. % (Septoria tritici) was 83%. It also gave an Eff. % (Sphaerotheca fuliginea) of 100% and an Eff. % (Uromyces appendiculatus) of 100%.

In the case of `Cn1nc(C(F)F)c(C(=O)Nc2cccc3c2CCCC3(C)C)c1Cl` [Example 2], the logP [1] is reported as 3.89[a], the Eff. % (Puccinia recondita) is reported as 98% and the Eff. % (Uromyces appendiculatus) is reported as 100%. For the same compound, the Eff. % (Phakopsora pachyrhizi) was 96% and the Eff. % [2] was 86%.

For `Cn1nc(C(F)F)c(C(=O)Nc2cccc3c2CCC(C)(C)C3)c1Cl` [Example 25, 5-chloro-3-(difluoromethyl)-N-(6,6-dimethyl-5,6,7,8-tetrahydronaphthalen-1-yl)-1-methyl-1H-pyrazole-4-carboxamide], the chromatographic logP [1] was 4.04, the Eff. % (Alternaria brassicae) was 70% and the Eff. % (Botrytis cinerea) was 97%. The Eff. % (Puccinia recondita) was 98%, the Eff. % (Septoria tritici) was 100% and the Eff. % (Uromyces appendiculatus) was 100%.

In the case of `CC1c2cccc(NC(=O)c3c(C(F)F)nn(C)c3F)c2CCC1(C)C` (racemic) [Example 12], the logP [1] is reported as 4.11[a], the Eff. % (Pyrenophora teres) is reported as 81% and the Eff. % (Pyricularia oryzae) is reported as 71%. For the same compound, the Eff. % (Puccinia recondita) was 100%, the Eff. % (Sphaerotheca fuliginea) was 100% and the Eff. % (Uromyces appendiculatus) was 100%.
